Assay results as given in patent US5763430A, “Method of treating a viral infection by administering a steroid compound” (priority 1995, dated 1998).
In brackets after ≈: the same amount, converted by molar mass. Entries after “also recorded” stand apart in the source; their conditions may differ.

Experiments:
[1] = tested on: chick embryo vitelline capillaries; assay: chick embryo vitelline capillary regression assay; format: in vivo; details: for relative activity: Table 5
Experimental: Using the chick embryo vitelline capillaries assay, compounds were tested for their ability to induce capillary regression. Each compound was applied in 0.1 ml of 15% Ficol 400 and PBS onto the embryo, and vascular regression was assessed after 60 minutes.
The 3-day chick embryo consists of an embryonic disc from which numerous vessels emerge and return, forming a "FIG. 8"-shaped structure--the embryo in the center with vascular loops extending outward over both poles. […] Following a lag period of around 15 minutes, the constriction of continuity between capillary and secondary vessels, generally on the "venous" side, was observed. Continued pulsatile blood flow progressed, resulting in a "swelling" of the blind tube, followed by a pinching off of the remaining connection and formation of an enclosed vascular sac resembling a "blood island." This process progressed until only the largest vessels remained intact.

C. albicans = assay: antibiotic activity (MIC); format: cell-based; details: Candida albicans; C. albicans; read-out: MIC
From the text: (§1) Thus, it is possible to achieve an antimicrobial steroid with or without squalamine-like pharmacological activity.

E. coli = assay: antibiotic activity (MIC); format: cell-based; details: Escherichia coli; E. coli; read-out: MIC
From the text: as §1

S. aureus = assay: antibiotic activity (MIC); format: cell-based; details: Staphylococcus aureus; S. aureus; read-out: MIC
From the text: as §1

[2] = tested on: stage 59-60 Xenopus tadpole; assay: Xenopus tadpole assay; details: for tadpole response: 10 μg/ml, about 1 hour; for similarity of pharmacologic activity in tadpole assay: in vivo
[3] = tested on: Human ovarian carcinoma SKOV3; assay: growth inhibition in vitro; format: cell-based; details: SKOV3
Experimental: As set forth in Table 7 below, all malignant tumors evaluated in tissue culture, endothelial cells and vascular smooth muscle cells were sensitive to inhibition. Thus, compound 1436 has application in the control of growth factor dependent proliferation of many types of tissue.
Using the assay described above, the anticancer effects of compound 1437 against several cancer lines was assessed.

[4] = effect on fasting blood glucose in mice; format: in vivo, mouse (male CD-1); details: i.v.
Experimental: To study the effect of steroid administrator or the NHE responsible for secretion of insulin, several of the aminosterols from shark liver were administered to fasting mice. Male CD-1 mice were assigned to one of four treatment groups. Whole blood glucose was tested using glucometer (Lifescan Glucometer II and One Touch test strips). Statistical analysis was via one-way analysis of variance (ANOVA) followed by subsequent Bonferonni's t-test.

[5] = tested on: L1210 lymphoblastic leukemia cells; assay: mouse model of leukemia; format: in vivo
From the text: C57B mice were inoculated with L1210 lymphoblastic leukemia cells at an inoculum that causes leukemia in 100% of animals.

[6] = tested on: human microvascular cells; assay: inhibition of endothelial cell cord formation in vitro; format: cell-based; details: for minimal effective concentration: Homo sapiens, Endothelial cell, Table II, read-out: Minimum Effective Concentration, Cord Formation; as to effect on endothelial cord formation: key: +: Inhibition of angiogenesis; -: No inhibition of angiogenesis; Toxic; *: cell rounding @ 10 µg/ml
From the text: Endothelial cells have the capacity in vitro to form tubular aggregates resembling capillaries in various early stages of formation. This conversion occurs under relatively specific conditions, in which essential growth factors along with an effective substratum are provided. It has been shown that both the interaction of growth factors with the endothelial cell and its attachment to a substratum activate the NHE. The activation of this exchanger is believed to be required for subsequent morphologic transformation of the endothelial cell into a multicellular tubular structure.
To assess the effect of compounds on the cord-like structures formed by human microvascular cells when plated in the presence of VEGF (Vascular Endothelial Growth Factor) and basic fibroblast growth factor on a collagen matrix, a standard cord formation assay was used.

B16 melanoma = assay: suppression of growth of B16 melanoma in C57B mice; format: in vivo, mouse; details: subcutaneous, C57B mice, FIG. 6
Experimental: The growth of B16 melanoma in C57B mice is dependent upon neovascularization.
Using the growth of B16 melanoma cells in C57B mice, a recognized model for the evaluation of inhibitors of angiogenesis on the growth of cancers, the effects of subcutaneous, intraperitoneal and oral administration of squalamine were evaluated.
Based on the idea that tumor growth involves both the clonal expansion of a malignant cell along with the development of a supporting vascular supply, a combination of compound 1436 with squalamine was tested to determine whether it would achieve a synergistic effect on solid tumor growth. This concept was evaluated in the B16 melanoma model.
Animals were implanted with B16 melanoma followed by treatment with compound 1436 or 1256 administered in a combined schedule or separately. […] Thus, a combination of these two compounds achieves a therapeutic benefit in tumors dependent on neovascularization that may prevent metastatic spread.

P. aerug = assay: antibiotic activity (MIC); format: cell-based; details: P. aerug; read-out: MIC
From the text: as §1

NHE = assay: comparison of compound 319 with squalamine through the assays
From the text: Moreover, other aminosterols have shown anti-angiogenic activity. Compounds were subjected to a various assays, including the chick embryo capillary regression assay, the tadpole assay, the assay for inhibition of endothelial cord formation, and the assay for direct inhibition of NHE, as described above, to determine their utilities. As evident from the above data, correlation among the results from the chick, tadpole and in vitro inhibition of endothelial cell cord formation assays is excellent.
Through the application of these assays, compound 319 emerged as an attractive alternative to squalamine. […] Further properties of compound 319 are discussed below.

[7] = effect on arterial resistance in the rat; format: in vivo; details: 40 μg noradrenaline, 30 minutes after compound 1436
Experimental: A 200-g rat was catheterized in the right carotid artery, and the compound was introduced over a ten-second period to a total dosage of 5 mg/kg. Within 30 seconds, the mean arterial pressure had fallen from about 100 mm Hg to about 70 mm Hg, with a marked reduction in pulse pressure from about 40 mm to about 10 mm. […] If cardiac output was basically unaffected, reduction in blood pressure would have resulted principally from a reduction in system resistance.
At that time, 40 μg of noradrenaline was introduced.

Row | SMILES | MIC (C. albicans) [µg/mL] | MIC (E. coli) [µg/mL] | MIC (S. aureus) [µg/mL] | effect on endothelial cord formation ([6]; 0.1 μg/ml) | effect on endothelial cord formation ([6]; 1.0 μg/ml) | effect on endothelial cord formation ([6]; 10.0 μg/ml) | MIC (P. aerug) [µg/mL] | similarity of pharmacologic activity in tadpole assay [2] | further results
1 | CC(COS(=O)(=O)O)C(=O)CC[C@@H](C)[C@H]1CC[C@H]2[C@@H]3[C@H](O)C[C@H]4C[C@@H](NCCCNCCCCN)CC[C@]4(C)[C@H]3CC[C@]12C (single isomer, unassigned) [Compound 1360] | 32 (≈ 49.8 µM) | 128 (≈ 199 µM) | 8 (≈ 12.5 µM) |  |  |  |  |  | effect on blood circulating through embryonic vessels ([1]; within 20 minutes): exhibited a brighter red color; tadpole response [2]: Swelling and lysis of certain erythrocytes occurred, resulting in accumulation of nuclei within certain small vessels of the tail; tadpole response ([2]; listed as compound 1360): extensive vasocclusion occurred within 60 minutes throughout the tail
2 | CC(C)C(CO)(CC[C@@H](C)[C@H]1CC[C@H]2[C@@H]3[C@H](O)C[C@H]4C[C@@H](NCCCNCCCCN)CC[C@]4(C)[C@H]3CC[C@]12C)OS(=O)(=O)O (single isomer, unassigned) [Compound 1437] |  |  |  |  |  |  |  |  | anticancer activity [3]: exhibit anticancer activity; hyperglycemia [4]: caused hyperglycemia in mice; tadpole response [2]: Epithelium covering the embryonic portions of the animal, such as the tail and antennae, began to slough off in sheets; also recorded: the larval skin was observed to shed off in a sheet
3 | N.N.[Cl][Pt][Cl] [Cisplatin, reference compound] |  |  |  |  |  |  |  |  | hematological profile [5]: profound anemia by day 28
4 | C[C@H](CCC(=O)O)[C@H]1CC[C@H]2[C@@H]3CC[C@H]4C[C@@H](NCCCNCCCCN)CC[C@]4(C)[C@H]3CC[C@]12C [Compound 319] | 8 (≈ 15.9 µM) | 32 to 64 (≈ 63.5 to 127 µM) | 64 (≈ 127 µM) | + | + | + | 32 (≈ 63.5 µM) |  | effect on endothelial cord formation ([6]; 0.01 μg/ml): -; relative activity [1]: especially active; control of B16 melanoma (B16 melanoma): achieved control of B16 in C57B mice to an extent almost comparable to squalamine; CNS effects (specificity) (NHE): no CNS effects; potency as an NHE inhibitor vs squalamine (NHE): superior to squalamine; tadpole response [2]: common vascular occlusive effect
5 | COC(=O)CC[C@@H](C)[C@H]1CC[C@H]2[C@@H]3[C@H](O)C[C@@H]4C[C@H](NCCN)CC[C@]4(C)[C@H]3CC[C@]12C [Compound 410] | 16 (≈ 35.7 µM) | 16 (≈ 35.7 µM) | 16 (≈ 35.7 µM) | - | + | + | 32 (≈ 71.3 µM) | functionally similar to compound 1437 | minimal effective concentration [6]: 10 µg/mL
6 | C[C@H](CCC(=O)O)[C@H]1CC[C@H]2[C@@H]3[C@H](O)C[C@@H]4C[C@H](NCCCNCCCCNCCCN)CC[C@]4(C)[C@H]3CC[C@]12C [Compound 412] | 8 (≈ 13.9 µM) | 64 (≈ 111 µM) | 8 (≈ 13.9 µM) | - | - | + | 8 (≈ 13.9 µM) | pharmacologic activity similar to that seen for FX 3 | minimal effective concentration [6]: > 10 µg/mL
7 | C[C@H](CCC(=O)O)[C@H]1CC[C@H]2[C@@H]3[C@H](O)C[C@@H]4C[C@@H](NCCCNCCCCNCCCN)CC[C@]4(C)[C@H]3CC[C@]12C [Compound 413] | 32 (≈ 55.5 µM) | 256 (≈ 444 µM) | 8 (≈ 13.9 µM) | - | - | + | 64 (≈ 111 µM) | effects like those produced by compound 1436 | minimal effective concentration [6]: > 10 µg/mL
8 | C[C@H](CCC(=O)O)[C@H]1CC[C@H]2[C@@H]3[C@H](O)C[C@@H]4C[C@@H](NCCN)CC[C@]4(C)[C@H]3CC[C@]12C [Compound 415] | 256 (≈ 589 µM) | 128 (≈ 294 µM) | 128 (≈ 294 µM) | - | - | +/T | 256 (≈ 589 µM) |  | minimal effective concentration [6]: > 10 µg/mL; relative activity [1]: especially active
9 | COC(=O)CC[C@@H](C)[C@H]1CC[C@H]2[C@@H]3C[C@@H](O)[C@H]4C[C@@H](NCCN)CC[C@]4(C)[C@H]3CC[C@]12C [Compound 432] | 2 to 4 (≈ 4.46 to 8.91 µM) | 8 to 16 (≈ 17.8 to 35.7 µM) | 1 (≈ 2.23 µM) |  | - | - | 64 (≈ 143 µM) | functionally similar to compound 1437 | 
10 | C[C@H](CCC(=O)O)[C@H]1CC[C@H]2[C@@H]3C[C@@H](O)[C@H]4C[C@@H](NCCN)CC[C@]4(C)[C@H]3CC[C@]12C [Compound 433] | > 256 | > 256 | > 256 |  |  |  | 128 (≈ 294 µM) | functionally similar to compound 1437 | 
11 | COC(=O)CC[C@@H](C)[C@H]1CC[C@H]2[C@@H]3CC[C@H]4C[C@H](NCCCNCCCCNCCCN)CC[C@]4(C)[C@H]3CC[C@]12C [Compound 458] | 2 (≈ 3.48 µM) | 32 (≈ 55.7 µM) | 4 (≈ 6.96 µM) |  |  |  | 64 (≈ 111 µM) | pharmacologic activity similar to that seen for FX 3 | 
12 | COC(=O)CC[C@@H](C)[C@H]1CC[C@H]2[C@@H]3CC[C@H]4C[C@@H](NCCCNCCCCNCCCN)CC[C@]4(C)[C@H]3CC[C@]12C [Compound 459] | 2 (≈ 3.48 µM) | 32 (≈ 55.7 µM) | 1 to 2 (≈ 1.74 to 3.48 µM) |  |  |  | 64 (≈ 111 µM) | pharmacologic activity similar to that seen for FX 3 | 
13 | COC(=O)CC[C@@H](C)[C@H]1CC[C@H]2[C@@H]3C[C@@H](O)[C@H]4C[C@H](NCCCNCCCCNCCCN)CC[C@]4(C)[C@H]3CC[C@]12C [Compound 465] | 4 (≈ 6.77 µM) | 32 (≈ 54.2 µM) | 2 to 4 (≈ 3.38 to 6.77 µM) |  |  |  | 128 (≈ 217 µM) | pharmacologic activity similar to that seen for FX 3 | 
14 | COC(=O)CC[C@@H](C)[C@H]1CC[C@H]2[C@@H]3C[C@@H](O)[C@H]4C[C@@H](NCCCNCCCCNCCCN)CC[C@]4(C)[C@H]3CC[C@]12C [Compound 466] | 2 (≈ 3.38 µM) | 32 (≈ 54.2 µM) | 2 (≈ 3.38 µM) |  |  |  | 32 (≈ 54.2 µM) | pharmacologic activity similar to that seen for FX 3 | 
15 | CC(C)CCC[C@@H](C)[C@H]1CC[C@H]2[C@@H]3[C@H](O)C[C@H]4C[C@H](N)CC[C@]4(C)[C@H]3CC[C@]12C [Compound 1363] | 2 (≈ 4.95 µM) | > 256 | 2 (≈ 4.95 µM) |  |  |  | > 256 | potencies comparable to that of Fraction 1 | 
16 | NC[C@H](O)c1ccc(O)c(O)c1 [noradrenaline, reference compound] |  |  |  |  |  |  |  |  | blood pressure after noradrenaline [7]: An almost immediate increase in blood pressure
